In general, IC50 refers to the concentration that gives 50% inhibition. For orientation: inhibition means the change of the read-out against control, counted positive when it falls.

Structures are written as SMILES. The source made the active and inactive calls. The rule behind the calls is not given here.

The results in this text go back to ChEMBL document CHEMBL1909549, “Synthesis, pharmacophore modeling and in vitro activity of 10,11-dihydrodibenzo[b,f]oxepine-4-carboxamide derivatives as novel and potent antagonists of the prostaglandin EP4 receptor” (Bioorg Med Chem Lett, 2011).

For series [1], the target named is Prostaglandin E2 receptor EP2 subtype (Homo sapiens, UniProt P43116). Briefly: Displacement of [3H]-PGE2 from human EP2 receptor expressed in HEK293 cells. The format is cell-based.
Chain of Prostaglandin E2 receptor EP2 subtype (P43116 whole entry): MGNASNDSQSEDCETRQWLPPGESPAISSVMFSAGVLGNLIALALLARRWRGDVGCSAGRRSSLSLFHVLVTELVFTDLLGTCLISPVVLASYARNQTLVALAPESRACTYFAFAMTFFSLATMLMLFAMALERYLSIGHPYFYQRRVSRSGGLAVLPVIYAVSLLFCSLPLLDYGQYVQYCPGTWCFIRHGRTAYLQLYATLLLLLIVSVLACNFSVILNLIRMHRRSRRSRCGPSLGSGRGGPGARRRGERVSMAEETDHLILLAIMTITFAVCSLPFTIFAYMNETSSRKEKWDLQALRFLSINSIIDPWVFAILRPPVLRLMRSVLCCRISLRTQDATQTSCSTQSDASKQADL
In series [2] the target is T1, Prostaglandin E2 receptor EP4 subtype (Homo sapiens, UniProt P35408). Description: Agonist activity at human EP4 receptor expressed in HEK293 cells assessed as potentiation of cAMP accumulation by bead-based proximity assay in absence of PGE2. The class given is functional, cell-based. (cAMP levels reflect the balance of adenylyl cyclase and phosphodiesterase activity.)
T1 sequence (P35408 whole entry): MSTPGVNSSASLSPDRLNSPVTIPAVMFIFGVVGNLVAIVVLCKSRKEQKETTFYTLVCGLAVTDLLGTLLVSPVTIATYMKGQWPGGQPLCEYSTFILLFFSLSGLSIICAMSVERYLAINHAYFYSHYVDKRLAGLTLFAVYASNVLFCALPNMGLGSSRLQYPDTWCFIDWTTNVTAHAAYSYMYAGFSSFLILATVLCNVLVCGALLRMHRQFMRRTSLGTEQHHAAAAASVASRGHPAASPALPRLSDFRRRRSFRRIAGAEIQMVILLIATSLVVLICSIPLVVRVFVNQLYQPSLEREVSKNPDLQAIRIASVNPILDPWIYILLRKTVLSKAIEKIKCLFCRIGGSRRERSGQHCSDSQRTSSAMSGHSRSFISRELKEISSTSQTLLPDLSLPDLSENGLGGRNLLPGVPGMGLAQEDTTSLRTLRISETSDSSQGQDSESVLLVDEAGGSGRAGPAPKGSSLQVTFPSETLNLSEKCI

The target of series [3] is T2, Cytochrome P450 3A4 (Homo sapiens, UniProt P08684). Briefly: Inhibition of recombinant human CYP3A4 using diethoxyfluorescein as substrate at 3 uM by fluorimetry. Conditions: recombinant enzyme. The format is ADME.
T2 sequence (P08684 whole entry): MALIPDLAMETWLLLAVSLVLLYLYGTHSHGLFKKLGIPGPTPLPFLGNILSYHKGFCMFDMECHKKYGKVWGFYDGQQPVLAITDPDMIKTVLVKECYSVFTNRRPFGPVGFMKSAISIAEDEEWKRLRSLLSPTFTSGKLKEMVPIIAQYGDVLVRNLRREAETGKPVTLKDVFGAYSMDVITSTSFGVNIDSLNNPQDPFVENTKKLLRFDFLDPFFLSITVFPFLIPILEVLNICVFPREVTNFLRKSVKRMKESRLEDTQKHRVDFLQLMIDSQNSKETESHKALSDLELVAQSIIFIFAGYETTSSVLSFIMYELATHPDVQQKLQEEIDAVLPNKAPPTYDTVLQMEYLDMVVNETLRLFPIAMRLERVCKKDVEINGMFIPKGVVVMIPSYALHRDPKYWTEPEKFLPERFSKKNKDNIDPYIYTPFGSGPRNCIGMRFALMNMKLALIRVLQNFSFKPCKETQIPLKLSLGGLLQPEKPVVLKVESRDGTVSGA
Series [4] deals with CYP2C9 (Homo sapiens, UniProt P11712). Briefly: Inhibition of recombinant human CYP2C9 at 3 uM by fluorimetry. The format is ADME.
Chain of CYP2C9 (P11712 whole entry): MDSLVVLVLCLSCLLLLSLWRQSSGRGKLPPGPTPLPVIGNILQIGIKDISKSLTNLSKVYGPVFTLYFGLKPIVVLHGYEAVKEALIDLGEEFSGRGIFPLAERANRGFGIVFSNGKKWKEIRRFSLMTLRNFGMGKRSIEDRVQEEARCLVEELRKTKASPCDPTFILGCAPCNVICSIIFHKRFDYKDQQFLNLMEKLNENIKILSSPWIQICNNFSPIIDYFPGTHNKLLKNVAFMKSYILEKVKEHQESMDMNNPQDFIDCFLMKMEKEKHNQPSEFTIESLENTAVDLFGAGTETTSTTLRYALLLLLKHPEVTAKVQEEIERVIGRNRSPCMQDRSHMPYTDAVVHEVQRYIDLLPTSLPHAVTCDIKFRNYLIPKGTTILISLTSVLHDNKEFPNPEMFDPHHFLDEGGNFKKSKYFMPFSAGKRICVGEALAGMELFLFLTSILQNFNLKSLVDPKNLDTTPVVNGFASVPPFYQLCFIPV
Series [5] has as its target T1, Prostaglandin E2 receptor EP4 subtype. Description: Displacement of [3H]-PGE2 from human EP4 receptor expressed in HEK293 cells. The class given is cell-based.
Series [6] concerns the target CYP2C19 (Homo sapiens, UniProt P33261). Briefly: (§1) Inhibition of recombinant human CYP2C19 at 3 uM by fluorimetry. The class given is ADME. Conditions: recombinant human CYP2C19.
Series [7] has as its target T1, Prostaglandin E2 receptor EP4 subtype. Description: Antagonist activity at human EP4 receptor expressed in HEK293 cells assessed as inhibition of PGE2-induced cAMP accumulation by bead-based proximity assay. The format is functional, cell-based.
Series [8] deals with T2, Cytochrome P450 3A4. Description: Inhibition of recombinant human CYP3A4 using 7-benzyloxy-4-trifluoromethyl coumarin as substrate at 3 uM by fluorimetry. The class given is ADME. Conditions: recombinant enzyme.
In series [9] the target is Cytochrome P450 2D6 (Homo sapiens, UniProt P10635). Description: Inhibition of recombinant human CYP2D6 at 3 uM by fluorimetry. The format is ADME. Conditions: recombinant enzyme.
Chain of Cytochrome P450 2D6 (P10635 whole entry): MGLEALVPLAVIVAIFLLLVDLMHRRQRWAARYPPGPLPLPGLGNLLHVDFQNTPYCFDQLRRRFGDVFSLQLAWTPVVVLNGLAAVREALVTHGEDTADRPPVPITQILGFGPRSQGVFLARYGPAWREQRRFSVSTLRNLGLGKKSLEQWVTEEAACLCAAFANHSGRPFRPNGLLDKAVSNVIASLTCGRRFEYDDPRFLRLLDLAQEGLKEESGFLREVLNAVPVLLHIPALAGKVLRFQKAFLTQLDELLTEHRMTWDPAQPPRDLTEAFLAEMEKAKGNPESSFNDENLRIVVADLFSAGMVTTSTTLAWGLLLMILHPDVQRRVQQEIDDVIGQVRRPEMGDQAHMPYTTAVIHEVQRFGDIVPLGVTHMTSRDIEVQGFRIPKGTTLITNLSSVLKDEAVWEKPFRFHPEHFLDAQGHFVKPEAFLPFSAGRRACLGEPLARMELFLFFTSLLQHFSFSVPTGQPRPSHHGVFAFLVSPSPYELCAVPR
Series [10] concerns the target T3, Cytochrome P450 1A2 (Homo sapiens, UniProt P05177).
T3 sequence (P05177 whole entry): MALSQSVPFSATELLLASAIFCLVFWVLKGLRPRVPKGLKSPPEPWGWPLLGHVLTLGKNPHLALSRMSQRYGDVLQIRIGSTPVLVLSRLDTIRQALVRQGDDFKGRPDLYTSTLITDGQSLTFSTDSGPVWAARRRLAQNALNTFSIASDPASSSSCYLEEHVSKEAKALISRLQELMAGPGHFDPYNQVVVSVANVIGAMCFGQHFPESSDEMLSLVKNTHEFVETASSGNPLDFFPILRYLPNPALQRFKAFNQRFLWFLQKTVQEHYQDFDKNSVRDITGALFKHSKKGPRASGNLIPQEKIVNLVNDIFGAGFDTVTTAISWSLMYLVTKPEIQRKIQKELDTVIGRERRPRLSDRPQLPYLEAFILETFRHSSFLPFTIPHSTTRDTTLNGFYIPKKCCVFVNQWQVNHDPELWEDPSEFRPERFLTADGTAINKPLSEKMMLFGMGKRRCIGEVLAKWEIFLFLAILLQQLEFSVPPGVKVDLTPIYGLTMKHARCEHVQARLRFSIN
Description: Inhibition of recombinant human CYP1A2 at 3 uM by fluorimetry. The class given is ADME. The following applies: recombinant enzyme.

Series [11] deals with Cytochrome P450 2C19 (Homo sapiens, UniProt P33261). Described as §1. The class given is ADME. The following applies: recombinant enzyme, 3 µM.
Chain of Cytochrome P450 2C19 (P33261 whole entry): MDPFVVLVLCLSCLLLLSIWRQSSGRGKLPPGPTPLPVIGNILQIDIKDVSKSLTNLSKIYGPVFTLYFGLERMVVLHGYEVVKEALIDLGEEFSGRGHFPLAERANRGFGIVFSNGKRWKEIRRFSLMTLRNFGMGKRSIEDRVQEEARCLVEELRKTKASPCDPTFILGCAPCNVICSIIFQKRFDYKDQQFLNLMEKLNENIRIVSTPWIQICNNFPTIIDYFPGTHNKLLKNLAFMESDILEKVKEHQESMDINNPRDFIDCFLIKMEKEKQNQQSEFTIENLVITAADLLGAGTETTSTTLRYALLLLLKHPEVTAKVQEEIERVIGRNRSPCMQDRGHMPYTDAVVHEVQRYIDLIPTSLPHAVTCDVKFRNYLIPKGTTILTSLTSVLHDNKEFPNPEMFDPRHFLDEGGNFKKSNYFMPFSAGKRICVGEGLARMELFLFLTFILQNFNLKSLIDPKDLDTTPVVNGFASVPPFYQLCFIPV
Series [12] has as its target T1, Prostaglandin E2 receptor EP4 subtype. Description: Ratio of CJ-42794 IC50 to compound IC50 for human EP4 receptor expressed in HEK293 cells. The format is cell-based.

Chain of CYP2C19 (P33261 whole entry): as above

As for `O=C(O)c1ccc(C2(NC(=O)c3cccc4c3Oc3ccc(C(F)(F)F)cc3CC4)CC2)cc1`, the half-inhibitory concentration (IC50) in series [1] was greater than 1000 nM; in series [5], 27 nM; in series [7], 34 nM. In addition, the outcome in series [2] was inactive. In addition, the “inhibition (INH)” value in series [3], in series [8], in [9] and in series [10] was “Not Active” in each case. Moreover, the inhibition at 3 µM in series [4] is 26%; in series [6] it was 13%.
Consider `C[C@H](NC(=O)c1cc(Cl)ccc1Oc1ccc(F)cc1)c1ccc(C(=O)O)cc1`, for which the IC50 in series [1] was greater than 1000 nM; in series [5] it was 10 nM; in [7], 13 nM.
On to `C[C@H](NC(=O)c1cccc2c1Oc1ccc(C(F)(F)F)cc1CC2)c1ccc(C(=O)O)cc1`, for which the values for the 50% inhibitory concentration (IC50) in [1], in series [5] and in [7] were greater than 1000 nM, 63 nM and 42 nM, respectively. Besides, the outcome in series [2] was inactive. Further, the “inhibition (INH)” value in series [3], in series [8], in [9] and in series [10] was “Not Active” each time. The inhibition at 3 µM came out at 17% in [4] and 11% in series [6].
Turning to `C[C@H](NC(=O)c1cccc2c1Oc1cc(C(F)(F)F)ccc1CC2)c1ccc(C(=O)O)cc1`, the IC50 is greater than 1000 nM in [1], 2 nM in series [5] and 20 nM in [7]. The outcome in series [2] was inactive. Also, the “inhibition (INH)” value in [3], in series [11], in [8], in [9] and in [10] was “Not Active” each time. In [4], the inhibition at 3 µM came out at 21%. The Ratio IC50 in [12] came to 5.
On to `O=C(O)c1ccc(C2(NC(=O)c3cccc4c3Oc3cc(C(F)(F)F)ccc3CC4)CC2)cc1`, for which the IC50 in series [1] was greater than 1000 nM; in [5], 4 nM; in [7], 1000 nM. Also, the outcome in series [2] was inactive. Also, the “inhibition (INH)” value in [3], in series [11], in [8], in series [9] and in [10] was “Not Active” in each case. In addition, in series [4], the inhibition at 3 µM came out at 11%.
